Data: article PMC7615656 (European journal of pharmacology, 2010)

Tests used:
[1] = biological target: recombinant rat α1β3γ2 receptors (Rattus norvegicus, UniProt P18508+P62813); assay: Two-electrode voltage clamp of GABA-induced chloride currents in Xenopus oocytes; type: cell-based; details: for efficacy (% GABA EC3): ns = not significant
[2] = biological target: recombinant rat α1β3γ2F77I receptors (Rattus norvegicus, UniProt P18508+P62813, F115I); assay: as above; type: cell-based; details: α1β3γ2F77I; for efficacy (% GABA EC3): ns = not significant
[3] = biological target: recombinant rat α2β3γ2 receptors (Rattus norvegicus, UniProt P18508+P23576); assay: as above; type: cell-based
[4] = biological target: recombinant rat α2β3γ2F77I receptors (Rattus norvegicus, UniProt P18508+P23576, F115I); assay: as above; type: cell-based; details: α2β3γ2F77I, ns = not significant
[5] = biological target: recombinant rat α3β3γ2 receptors (Rattus norvegicus, UniProt P18508+P20236); assay: as above; type: cell-based; details: for efficacy (% GABA EC3): α3β3γ2, ns = not significant
[6] = biological target: recombinant rat α3β3γ2F77I receptors (Rattus norvegicus, UniProt P18508+P20236, F115I); assay: as above; type: cell-based; details: α3β3γ2F77I, ns = not significant
[7] = biological target: recombinant rat α4β3γ2 receptors (Rattus norvegicus, UniProt P18508+P28471); assay: as above; type: cell-based; details: for efficacy (% GABA EC3): α4β3γ2, ns = not significant
Sequence of recombinant rat α4β3γ2 receptors (P28471 36-552): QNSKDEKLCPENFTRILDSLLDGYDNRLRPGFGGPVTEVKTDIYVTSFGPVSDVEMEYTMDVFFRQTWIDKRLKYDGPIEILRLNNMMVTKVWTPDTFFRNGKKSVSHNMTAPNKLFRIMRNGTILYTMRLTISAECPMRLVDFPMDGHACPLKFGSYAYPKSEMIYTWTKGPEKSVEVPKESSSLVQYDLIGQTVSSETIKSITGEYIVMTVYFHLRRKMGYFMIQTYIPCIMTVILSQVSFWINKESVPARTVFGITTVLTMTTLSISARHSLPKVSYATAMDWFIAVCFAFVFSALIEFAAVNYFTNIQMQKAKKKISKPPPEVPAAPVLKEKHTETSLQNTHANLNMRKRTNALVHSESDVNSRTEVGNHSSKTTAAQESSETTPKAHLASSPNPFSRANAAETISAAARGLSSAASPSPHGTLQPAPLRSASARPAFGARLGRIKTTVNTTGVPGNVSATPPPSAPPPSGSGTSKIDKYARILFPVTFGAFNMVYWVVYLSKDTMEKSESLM
Sequence of recombinant rat α4β3γ2 receptors (P63079 26-473 partner): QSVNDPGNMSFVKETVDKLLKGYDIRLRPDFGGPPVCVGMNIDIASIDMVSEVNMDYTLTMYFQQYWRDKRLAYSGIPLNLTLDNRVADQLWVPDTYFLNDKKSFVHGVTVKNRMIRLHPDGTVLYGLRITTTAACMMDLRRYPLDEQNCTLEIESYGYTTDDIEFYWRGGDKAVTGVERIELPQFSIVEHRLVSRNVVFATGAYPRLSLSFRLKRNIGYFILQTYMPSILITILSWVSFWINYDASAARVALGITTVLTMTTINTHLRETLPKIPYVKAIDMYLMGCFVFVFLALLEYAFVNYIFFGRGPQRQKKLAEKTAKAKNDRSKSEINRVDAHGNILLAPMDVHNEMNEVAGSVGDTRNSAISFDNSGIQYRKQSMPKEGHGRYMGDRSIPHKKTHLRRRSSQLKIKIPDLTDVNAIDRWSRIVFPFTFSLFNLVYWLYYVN
Sequence of recombinant rat α4β3γ2 receptors (P18508 39-466): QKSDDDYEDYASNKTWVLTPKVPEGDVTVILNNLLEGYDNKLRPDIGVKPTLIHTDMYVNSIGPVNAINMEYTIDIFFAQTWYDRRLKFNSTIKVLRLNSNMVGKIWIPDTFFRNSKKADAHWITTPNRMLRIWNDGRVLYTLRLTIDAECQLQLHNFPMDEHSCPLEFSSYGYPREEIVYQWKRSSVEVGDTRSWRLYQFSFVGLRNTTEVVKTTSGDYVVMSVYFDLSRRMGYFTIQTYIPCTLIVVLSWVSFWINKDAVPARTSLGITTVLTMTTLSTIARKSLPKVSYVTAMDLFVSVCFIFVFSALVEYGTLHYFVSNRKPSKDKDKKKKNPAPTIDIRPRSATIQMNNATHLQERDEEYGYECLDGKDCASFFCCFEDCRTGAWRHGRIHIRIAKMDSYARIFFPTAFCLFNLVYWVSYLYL

[8] = biological target: recombinant rat α5β3γ2 receptors (Rattus norvegicus, UniProt P18508+P19969); assay: as above; type: cell-based; details: for efficacy (% GABA EC3): α5β3γ2, ns = not significant
Sequence of recombinant rat α5β3γ2 receptors (P19969 32-464 limits assumed): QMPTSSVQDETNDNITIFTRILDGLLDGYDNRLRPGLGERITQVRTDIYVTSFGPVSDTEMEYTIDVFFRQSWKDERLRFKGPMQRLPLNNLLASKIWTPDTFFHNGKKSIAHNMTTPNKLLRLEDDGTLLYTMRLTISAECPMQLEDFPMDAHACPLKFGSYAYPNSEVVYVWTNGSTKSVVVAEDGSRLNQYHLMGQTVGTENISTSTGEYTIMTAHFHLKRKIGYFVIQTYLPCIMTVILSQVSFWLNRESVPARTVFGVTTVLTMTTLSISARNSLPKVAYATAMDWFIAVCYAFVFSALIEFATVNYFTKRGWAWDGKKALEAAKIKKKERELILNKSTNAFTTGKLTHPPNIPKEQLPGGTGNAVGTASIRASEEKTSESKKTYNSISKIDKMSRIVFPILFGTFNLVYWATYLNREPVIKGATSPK
Sequence of recombinant rat α5β3γ2 receptors (P63079 26-473 partner): as the sequence (P63079 26-473 partner) above
Sequence of recombinant rat α5β3γ2 receptors (P18508 39-466): as the sequence (P18508 39-466) above

[9] = biological target: recombinant rat α5β3γ2F77I receptors (Rattus norvegicus, UniProt P18508+P19969, F115I); assay: as above; type: cell-based; details: α5β3γ2F77I, ns = not significant
[10] = biological target: recombinant rat α6β3γ2 receptors (Rattus norvegicus, UniProt P18508+P30191); assay: as above; type: cell-based; details: for efficacy (% GABA EC3): α6β3γ2, ns = not significant
[11] = tested on: GABAA receptors containing the γ2F77I mutation; assay: Modulation of GABA EC3 in receptors containing the γ2F77I mutation; type: cell-based, rat; details: 10 μM; some γ2F77I receptors
[12] = tested on: GABAA receptors of mice containing the point mutation γ2F77I; details: receptor binding; ref Ogris et al., 2004; cited from earlier work
[13] = biological target: recombinant rat α4β3γ2F77I receptors (Rattus norvegicus, UniProt P18508+P28471, F115I); assay: Two-electrode voltage clamp of GABA-induced chloride currents in Xenopus oocytes; type: cell-based; details: ns = not significant
Sequence of recombinant rat α4β3γ2F77I receptors (P28471 36-552): as the sequence (P28471 36-552) above
Sequence of recombinant rat α4β3γ2F77I receptors (P63079 26-473 partner): as the sequence (P63079 26-473 partner) above
Sequence of recombinant rat α4β3γ2F77I receptors (P18508 39-466 F115I): as the sequence (P18508 39-466) above, with F77I counted along it

[14] = biological target: recombinant rat α6β3γ2F77I receptors (Rattus norvegicus, UniProt P18508+P30191, F115I); assay: as above; type: cell-based; details: ns = not significant
α5 receptors = details: ref Atack et al., 2006; Quirk et al., 1996; cited from earlier work
α3β3γ2 receptors = details: 10 μM, ref Atack et al., 2006; cited from earlier work
α1β3 receptors = α1β3 receptors (Rattus norvegicus, UniProt P62813+P63079); assay: Zn2+ reduction of GABA-induced chloride flux; type: cell-based; details: 10 μM Zn2+, means ± SEM, n=4
Sequence of α1β3 receptors (P62813 28-455): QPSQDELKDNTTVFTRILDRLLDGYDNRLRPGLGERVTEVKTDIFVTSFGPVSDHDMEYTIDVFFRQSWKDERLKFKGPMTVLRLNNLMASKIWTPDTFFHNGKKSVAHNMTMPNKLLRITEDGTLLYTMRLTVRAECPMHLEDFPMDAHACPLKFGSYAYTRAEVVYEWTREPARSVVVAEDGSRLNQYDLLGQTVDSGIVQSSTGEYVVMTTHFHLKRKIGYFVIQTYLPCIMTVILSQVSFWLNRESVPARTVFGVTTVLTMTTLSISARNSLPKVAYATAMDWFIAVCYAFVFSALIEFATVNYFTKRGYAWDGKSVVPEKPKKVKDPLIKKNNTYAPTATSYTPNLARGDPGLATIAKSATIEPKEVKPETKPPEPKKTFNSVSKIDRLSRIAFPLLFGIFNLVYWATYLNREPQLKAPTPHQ
Sequence of α1β3 receptors (P63079 26-473): as the sequence (P63079 26-473 partner) above

[15] = 100 nM, α2β3γ2, ns = not significant
[16] = 1 μM, α2β3γ2, ns = not significant
[17] = 10 μM, α2β3γ2, ns = not significant
[18] = read-out: efficacy (% GABA EC3)

CN1CCN(C(=O)OC2c3nccnc3C(=O)N2c2ccc(Cl)cn2)CC1 (stereo not shown) [Zopiclone, 4-methyl-1-piperazinecarboxylic acid-6-(5-chloro-2-pyridinyl)-6,7-dihydro-7-oxo-5H-pyrrolo[3,4-b]pyrazin-5-yl ester]
EC50 [1]: 0.163 ± 0.019 µM
efficacy (% GABA EC3) ([1]; 100 nM, α1β3γ2): 211 ± 17 % GABA EC3
efficacy (% GABA EC3) ([1]; 1 μM, α1β3γ2): 347 ± 35 % GABA EC3
efficacy (% GABA EC3) ([1]; 10 μM, α1β3γ2): 383 ± 36 % GABA EC3
efficacy (% GABA EC3) ([2]; 100 nM): ns
efficacy (% GABA EC3) ([2]; 1 μM): ns
efficacy (% GABA EC3) ([2]; 10 μM): 125 ± 3 % GABA EC3
EC50 [3]: 0.4 ± 0.064 µM
efficacy (% GABA EC3) [3, 15]: 157 ± 9 % GABA EC3
efficacy (% GABA EC3) [3, 16]: 289 ± 16 % GABA EC3
efficacy (% GABA EC3) [3, 17]: 356 ± 22 % GABA EC3
efficacy (% GABA EC3) ([4]; 100 nM): ns
efficacy (% GABA EC3) ([4]; 1 μM): ns
efficacy (% GABA EC3) ([4]; 10 μM): 121 ± 2 % GABA EC3
EC50 [5]: > 0.793 µM
efficacy (% GABA EC3) ([5]; 100 nM): 161 ± 10 % GABA EC3
efficacy (% GABA EC3) ([5]; 1 μM): 377 ± 24 % GABA EC3
efficacy (% GABA EC3) ([5]; 10 μM): 559 ± 30 % GABA EC3
efficacy (% GABA EC3) ([6]; 100 nM): ns
efficacy (% GABA EC3) ([6]; 1 μM): 107 ± 1 % GABA EC3
efficacy (% GABA EC3) ([6]; 10 μM): 119 ± 4 % GABA EC3
efficacy (% GABA EC3) ([7]; 1 μM): ns
efficacy (% GABA EC3) ([7]; 10 μM): ns
efficacy (% GABA EC3) ([7]; 10 μM, listed as zopiclone): did not significantly stimulate
EC50 [8]: 0.176 ± 0.001 µM
efficacy (% GABA EC3) ([8]; 100 nM): 191 ± 8 % GABA EC3
efficacy (% GABA EC3) ([8]; 1 μM): 313 ± 18 % GABA EC3
efficacy (% GABA EC3) ([8]; 10 μM): 345 ± 22 % GABA EC3
efficacy (% GABA EC3) ([9]; 100 nM): ns
efficacy (% GABA EC3) ([9]; 1 μM): 114 ± 2 % GABA EC3
efficacy (% GABA EC3) ([9]; 10 μM): 144 ± 1 % GABA EC3
efficacy (% GABA EC3) ([10]; 1 μM): ns
efficacy (% GABA EC3) ([10]; 10 μM): ns
efficacy (% GABA EC3) ([10]; 10 μM, listed as zopiclone): did not significantly stimulate
stimulation of GABA-induced chloride flux [11]: 20–40%
shift in affinity caused by γ2F77I [12]: ~100 fold

CCOC(=O)c1ncn2c1C1CCCN1C(=O)c1cc(OC)ccc1-2 [L-655,708, ethyl-7-methoxy-11,12,13,13a-tetrahydro-9-oxo-9H-imidazo[1,5-a]pyrrolo[2,1-c][1,4] benzodiazepine-1-carboxylate]
efficacy (% GABA EC3) ([1]; 10 nM, α1β3γ2): ns
efficacy (% GABA EC3) ([1]; 100 nM, α1β3γ2): ns
efficacy (% GABA EC3) ([1]; 1 μM, α1β3γ2): ns
efficacy (% GABA EC3) ([1]; 10 μM, α1β3γ2): 90 ± 4 % GABA EC3
activity at 10 µM [1, 18]: 90%
efficacy (% GABA EC3) ([2]; 10 nM): ns
efficacy (% GABA EC3) ([2]; 100 nM): ns
efficacy (% GABA EC3) ([2]; 1 μM): ns
efficacy (% GABA EC3) ([2]; 10 μM): ns
efficacy (% GABA EC3) ([3]; 10 nM, α2β3γ2, ns = not significant): ns
efficacy (% GABA EC3) [3, 15]: ns
activity at 1 µM ([3]; read-out: efficacy (% GABA EC3), 1 μM, α2β3γ2, ns = not significant): 93 ± 1%
activity at 10 µM ([3]; read-out: efficacy (% GABA EC3), 10 μM, α2β3γ2, ns = not significant): 90%
efficacy (% GABA EC3) ([4]; 10 nM): ns
efficacy (% GABA EC3) ([4]; 100 nM): ns
efficacy (% GABA EC3) ([4]; 1 μM): ns
efficacy (% GABA EC3) ([4]; 10 μM): ns
EC50 [5]: 0.01 ± 0.003 µM
activity at 0.01 µM [5, 18]: 113 ± 1%
activity at 0.1 µM [5, 18]: 126 ± 1%
activity at 1 µM [5, 18]: 131 ± 4%
activity at 10 µM [5, 18]: 126 ± 4%
efficacy (% GABA EC3) ([6]; 10 nM): ns
efficacy (% GABA EC3) ([6]; 100 nM): ns
efficacy (% GABA EC3) ([6]; 1 μM): ns
efficacy (% GABA EC3) ([6]; 10 μM): ns
EC50 [7]: 0.168 ± 0.071 µM
efficacy (% GABA EC3) ([7]; 10 nM): ns
activity at 0.1 µM [7, 18]: 143 ± 12%
activity at 1 µM [7, 18]: 215 ± 4%
activity at 10 µM [7, 18]: 224 ± 15%
efficacy (% GABA EC3) ([13]; 10 nM): ns
efficacy (% GABA EC3) ([13]; 100 nM): ns
efficacy (% GABA EC3) ([13]; 1 μM): ns
efficacy (% GABA EC3) ([13]; 10 μM): ns
efficacy (% GABA EC3) ([8]; 10 nM): ns
activity at 0.1 µM [8, 18]: 91 ± 1%
activity at 1 µM [8, 18]: 84 ± 5%
activity at 10 µM [8, 18]: 66 ± 7%
efficacy (% GABA EC3) ([9]; 10 nM): ns
efficacy (% GABA EC3) ([9]; 100 nM): ns
efficacy (% GABA EC3) ([9]; 1 μM): ns
efficacy (% GABA EC3) ([9]; 10 μM): ns
EC50 [10]: > 0.47 µM
activity at 0.01 µM [10, 18]: 118 ± 4%
activity at 0.1 µM [10, 18]: 131 ± 12%
activity at 1 µM [10, 18]: 176 ± 25%
activity at 10 µM [10, 18]: 199 ± 31%
efficacy (% GABA EC3) ([14]; 10 nM): ns
efficacy (% GABA EC3) ([14]; 100 nM): ns
efficacy (% GABA EC3) ([14]; 1 μM): ns
efficacy (% GABA EC3) ([14]; 10 μM): ns
shift in affinity caused by γ2F77I [12]: > 1000 fold
selectivity for α5 receptors in receptor binding assays (α5 receptors): 30–50 fold
reduction of GABA-induced chloride flux to (α3β3γ2 receptors): 90%

[Zn+2] [Zn^2+]
GABA-induced chloride flux reduced to ([1]; 10 μM Zn2+, α1β3γ2, means ± SEM, n=4): 70.3 ± 3%
GABA-induced chloride flux reduced to ([2]; 10 μM Zn2+, means ± SEM, n=4): 75.4 ± 3%
GABA-induced chloride flux reduced to (α1β3 receptors): 5.5 ± 1%

Cc1nnc2ccc(-c3cccc(C(F)(F)F)c3)nn12 [CL 218872, 3-methyl-6-[3-trifluoromethyl-phenyl]-1,2,4-triazolo[4,3-b]pyridazine]
efficacy (% GABA EC3) ([1]; 100 nM, α1β3γ2): 119 ± 7 % GABA EC3
efficacy (% GABA EC3) ([1]; 1 μM, α1β3γ2): 172 ± 10 % GABA EC3
efficacy (% GABA EC3) ([1]; 10 μM, α1β3γ2): 214 ± 13 % GABA EC3
efficacy (% GABA EC3) ([2]; 100 nM): ns
efficacy (% GABA EC3) ([2]; 1 μM): ns
efficacy (% GABA EC3) ([2]; 10 μM): 132 ± 4 % GABA EC3
efficacy (% GABA EC3) [3, 15]: ns
efficacy (% GABA EC3) [3, 16]: ns
efficacy (% GABA EC3) [3, 17]: 162 ± 3 % GABA EC3
further fold reduction of potency for enhancing GABA current ([3]; α2β3γ2 versus α3β3γ2): approximately 3 fold
efficacy (% GABA EC3) ([4]; 100 nM): ns
efficacy (% GABA EC3) ([4]; 1 μM): ns
efficacy (% GABA EC3) ([4]; 10 μM): ns
efficacy (% GABA EC3) ([5]; 100 nM): 114 ± 2 % GABA EC3
efficacy (% GABA EC3) ([5]; 1 μM): 138 ± 7 % GABA EC3
efficacy (% GABA EC3) ([5]; 10 μM): 195 ± 8 % GABA EC3
fold reduced potency for enhancing GABA EC3 ([5]; α3β3γ2 versus α1β3γ2): approximately 3 fold
efficacy (% GABA EC3) ([6]; 100 nM): ns
efficacy (% GABA EC3) ([6]; 1 μM): ns
efficacy (% GABA EC3) ([6]; 10 μM): 125 ± 3 % GABA EC3
efficacy (% GABA EC3) ([7]; 100 nM): ns
efficacy (% GABA EC3) ([7]; 1 μM): ns
efficacy (% GABA EC3) ([7]; 1 μM, listed as Cl218872): no effect
efficacy (% GABA EC3) ([7]; 10 μM): 199 ± 27 % GABA EC3
efficacy (% GABA EC3) ([8]; 100 nM): ns
efficacy (% GABA EC3) ([8]; 1 μM): 114 ± 1 % GABA EC3
efficacy (% GABA EC3) ([8]; 10 μM): 128 ± 2 % GABA EC3
efficacy (% GABA EC3) ([9]; 100 nM): ns
efficacy (% GABA EC3) ([9]; 1 μM): ns
efficacy (% GABA EC3) ([9]; 10 μM): 120 ± 3 % GABA EC3
efficacy (% GABA EC3) ([10]; 100 nM): ns
efficacy (% GABA EC3) ([10]; 1 μM): ns
efficacy (% GABA EC3) ([10]; 10 μM): ns
efficacy (% GABA EC3) ([10]; 10 μM, listed as Cl218872): no significant stimulation
stimulation of GABA-induced chloride flux [11]: 20–40%
shift in affinity caused by γ2F77I [12]: ~900 fold
